Marks after values point to notes of the source that are not given here.
Assay: Solubility of active agents in surfactants (saturation, HPLC)
Format: physicochemical
Settings: 40° C., mean of three ± SD unless a (single) or b (duplicate); for Solubility Irinotecan HCl: irinotecan HCl in the surfactant; for Solubility Irinotecan base: irinotecan base in the surfactant; for Solubility Paclitaxel: paclitaxel in the surfactant
Description: In order for the surfactants to be useful as components of the delivery system, it is important to be able to dissolve biologically active agents in the surfactant or in the water. Table 3 illustrates that the surfactants are useful for dissolving three pharmaceutical compounds that may potentially be delivered using the invention. Solubility was determined by saturation of the surfactant with solid drug at 40° C. until saturation is achieved. Drug level was determined by reverse phase HPLC. Values given are the mean of three separate samples±standard deviation, unless denoted otherwise.

Structure (SMILES) | Solubility Irinotecan HCl | Solubility Irinotecan base | Solubility Paclitaxel
CC(C)CCCC(C)CCCC(C)CCCC(C)CCN(CCO)C(N)=O (centres unmarked) [1-(3,7,11,15-tetramethyl-hexadecyl)-1-(2-hydroxyethyl)urea] | 0.43 ± 0.20 mg/g | 0.35 ± 0.001 mg/g | 0.87 ± 0.18 mg/g
CC(C)CCCC(C)CCCC(C)CCCC(C)CCNC(=O)NCCO (centres unmarked) [1-(3,7,11,15-tetramethyl-hexadecyl)-3-(2-hydroxyethyl)urea] | 4.36 ± 0.30 mg/g | 0.94 ± 0.02 mg/g | 5.67 ± 1.64 mg/g
CC(C)CCCC(C)CCCC(C)CCCC(C)CCNC(N)=O (centres unmarked) [3,7,11,15-Tetramethyl-hexadecyl urea] | 1.63 ± 0.64 mg/g | 0.44 ± 0.11 mg/g | 7.85 ± 1.93 mg/g
CC(C)CCCC(C)CCCC(C)CCNC(N)=O (centres unmarked) [3,7,11-Trimethyl-dodecyl urea] | 33.83 ± 5.98 mg/g | 3.76 ± 0.45 mg/g | 34.65 ± 2.34 mg/g

Now from value to compound:

Solubility Irinotecan HCl | Solubility Irinotecan base | Solubility Paclitaxel | Structure (SMILES)
4.33 ± 0.37 mg/g | 64.54 ± 4.65 mg/g | 4.83 ± 0.83 mg/g | CC(C)CCCC(C)CCCC(C)CCCC(C)CCOC(=O)C(O)CO (centres unmarked) [2,3-Dihydroxypropionic acid 3,7,11,15-tetramethyl-hexadecyl ester]
4.58^a mg/g | 3.92^b mg/g | 7.25^b mg/g | CC(C)CCCC(C)CCCC(C)CCOC(=O)C(O)CO (centres unmarked) [2,3-Dihydroxypropionic acid 3,7,11-trimethyl-dodecyl ester]
9.69 ± 0.74 mg/g | 35.66 ± 1.26 mg/g | 8.43 ± 0.23 mg/g | CCCCCCCCC=CCCCCCCCCOC(=O)C(O)CO (centres unmarked) [2,3-Dihydroxypropionic acid octadec-9-enyl ester]
– | 6.22^a mg/g | 6.66^a mg/g | CC(C)CCCC(C)CCCC(C)CCCC(C)CC(=O)OCC(O)CO (centres unmarked) [3,7,11,15-tetramethyl-hexadecanoic acid 1-glycerol ester]

— US20070108405A1, “Compositions and methods for delivery of biologically active agents” (FH FAULDING & CO., LTD., priority 2003, published 2007)
